Reference: PubChem BioAssay AID248 (DTP/NCI, 2004)
Values joined by “and” are separate entries in the source; they are usually repeats but may differ in a detail not shown here. Identical values can stand only once. Inconclusive results and toxic doses are left out. No stated cut-off is given here; in the data, active means T/C of 150% or more; inactive means T/C below 125%.

System: L1210 leukemia ip in BDF1 mice, survival T/C
Assay: NCI In Vivo Anticancer Drug Screen. Data for tumor model L1210 Leukemia (intraperitoneal) in B6D2F1 (BDF1) mice
Conditions: endpoint: mean survival time, higher = longer survival
How it was run: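 Survival endpoint. Drug-treated group vs vehicle group, expressed as T divided by C. Tumor passaged by transplantation.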

[1] = dose: 50.0 mg/kg/injection, schedule: Q01DX009 (ip), vehicle: saline with Tween-80
[2] = dose: 100.0 mg/kg/injection, schedule: Q01DX001 (ip), vehicle: saline
[3] = dose: 200.0 mg/kg/injection, schedule: Q01DX001 (ip), vehicle: saline
[4] = dose: 400.0 mg/kg/injection, schedule: Q01DX001 (ip), vehicle: saline
[5] = dose: 100.0 mg/kg/injection, schedule: Q01DX009 (ip), vehicle: gum acacia

Measured: T/C

C=C(C)[C@H]1Cc2c(ccc3c2O[C@@H]2COc4cc(OC)c(OC)cc4[C@@H]2C3=O)O1
inactive: dose: 0.25 mg/kg/injection, schedule: Q01DX Z (ip), vehicle: other 95 % of control | dose: 0.5 mg/kg/injection, schedule: Q01DX Z (ip), vehicle: other 97 % of control | dose: 0.5 mg/kg/injection, schedule: Q02DX Z (ip), vehicle: water 96 % of control | dose: 0.75 mg/kg/injection, schedule: Q01DX Z (ip), vehicle: other 95 % of control | dose: 0.75 mg/kg/injection, schedule: Q02DX Z (ip), vehicle: water 101 % of control | dose: 1.0 mg/kg/injection, schedule: Q01DX Z (ip), vehicle: other 88 % of control | dose: 1.0 mg/kg/injection, schedule: Q02DX Z (ip), vehicle: water 102 % of control | dose: 2.0 mg/kg/injection, schedule: Q01DX015 (ip), vehicle: saline 97 % of control | dose: 2.0 mg/kg/injection, schedule: Q02DX Z (ip), vehicle: water 107 % of control | dose: 4.0 mg/kg/injection, schedule: Q01DX015 (ip), vehicle: saline 101 % of control | dose: 8.0 mg/kg/injection, schedule: Q01DX015 (ip), vehicle: saline 109 % of control | dose: 16.0 mg/kg/injection, schedule: Q01DX015 (ip), vehicle: saline 109 % of control

O=c1c(Cl)c(C(Cl)(Cl)Cl)[nH]c2c(Cl)cc(Cl)cc12
inactive: dose: 6.25 mg/kg/injection, schedule: Q01DX009 (ip), vehicle: other 93 % of control | dose: 12.5 mg/kg/injection, schedule: Q01DX009 (ip), vehicle: other 107 % of control

Clc1ccc(C#[C][Hg][C]#Cc2ccc(Cl)cc2)cc1
inactive: [1] 109 % of control | dose: 100.0 mg/kg/injection, schedule: Q01DX009 (ip), vehicle: saline with Tween-80 95 % of control | dose: 200.0 mg/kg/injection, schedule: Q01DX009 (ip), vehicle: saline with Tween-80 92 % of control

CCCCOCN1CCCCC1
inactive: dose: 31.0 mg/kg/injection, schedule: Q01DX Z (ip), vehicle: carboxymethylcellulose (CMC) 95 % of control | dose: 62.5 mg/kg/injection, schedule: Q01DX Z (ip), vehicle: carboxymethylcellulose (CMC) 101 % of control | dose: 100.0 mg/kg/injection, schedule: Q04DX003 (ip), vehicle: saline with Tween-80 111 % of control | dose: 125.0 mg/kg/injection, schedule: Q01DX Z (ip), vehicle: carboxymethylcellulose (CMC) 105 % of control | dose: 200.0 mg/kg/injection, schedule: Q04DX003 (ip), vehicle: saline with Tween-80 102 % of control

Cc1cc(O)c2c(c1O)C(=O)C13C(=C2O)C(=O)C2C(O)C1C1C(O)C3C(=O)C3=C(O)c4c(O)cc(C)c(O)c4C(=O)C321 (stereo unspecified)
inactive: dose: 12.5 mg/kg/injection, schedule: Q04DX003 (ip), vehicle: saline with Tween-80 93 % of control | dose: 25.0 mg/kg/injection, schedule: Q04DX003 (ip), vehicle: saline with Tween-80 106 % of control

O=CNC(Cc1cccc(N(CCCl)CCCl)c1)C(=O)O (stereo unspecified)
inactive: dose: 8.0 mg/kg/injection, schedule: Q01DX Z (ip), vehicle: methylcellulose (MC) 106 % of control | dose: 12.0 mg/kg/injection, schedule: Q01DX Z (ip), vehicle: methylcellulose (MC) 95 % of control | dose: 18.0 mg/kg/injection, schedule: Q01DX Z (ip), vehicle: methylcellulose (MC) 103 % of control | dose: 27.0 mg/kg/injection, schedule: Q01DX Z (ip), vehicle: methylcellulose (MC) 97 % of control

CCCCCCCCCCCCNC(=O)c1cc[n+](C)cc1
inactive: dose: 12.5 mg/kg/injection, schedule: Q04DX003 (ip), vehicle: saline 103 % of control and 88 % of control and 93 % of control | dose: 25.0 mg/kg/injection, schedule: Q04DX003 (ip), vehicle: saline 99 % of control and 87 % of control and 91 % of control | dose: 50.0 mg/kg/injection, schedule: Q04DX003 (ip), vehicle: saline 93 % of control and 91 % of control and 88 % of control

CCOC(=O)NCCO
inactive: [2] 103 % of control | [3] 95 % of control | [4] 97 % of control

CCC[n+]1cccc(C#N)c1
inactive: dose: 37.5 mg/kg/injection, schedule: Q04DX003 (ip), vehicle: saline 97 % of control | dose: 75.0 mg/kg/injection, schedule: Q01DX001 (ip), vehicle: saline 94 % of control | dose: 75.0 mg/kg/injection, schedule: Q04DX003 (ip), vehicle: saline 100 % of control | dose: 150.0 mg/kg/injection, schedule: Q01DX001 (ip), vehicle: saline 103 % of control

O=C(O)COc1ccccc1-c1ccccc1Cl
inactive: dose: 100.0 mg/kg/injection, schedule: Q04DX003 (ip), vehicle: Klucel (hydroxypropylcellulose) (HPC) 98 % of control | dose: 200.0 mg/kg/injection, schedule: Q04DX003 (ip), vehicle: Klucel (hydroxypropylcellulose) (HPC) 90 % of control

CC1CCCCN1Cc1ccccc1COC(=O)c1cccc(Br)c1 (stereo unspecified)
inactive: dose: 100.0 mg/kg/injection, schedule: Q01DX001 (ip), vehicle: Klucel (hydroxypropylcellulose) (HPC) 104 % of control | dose: 200.0 mg/kg/injection, schedule: Q01DX001 (ip), vehicle: Klucel (hydroxypropylcellulose) (HPC) 96 % of control

CCCCCCCCCCCCP(=O)(O)O
inactive: dose: 75.0 mg/kg/injection, schedule: Q01DX001 (ip), vehicle: other 94 % of control | dose: 150.0 mg/kg/injection, schedule: Q01DX001 (ip), vehicle: other 97 % of control

CC(=O)OCC1OC([S][Sb]([CH3])[CH3])C(OC(C)=O)C(OC(C)=O)C1OC(C)=O (stereo unspecified)
inactive: dose: 12.5 mg/kg/injection, schedule: Q01DX009 (ip), vehicle: Klucel (hydroxypropylcellulose) (HPC) 96 % of control | dose: 25.0 mg/kg/injection, schedule: Q01DX009 (ip), vehicle: Klucel (hydroxypropylcellulose) (HPC) 102 % of control | dose: 50.0 mg/kg/injection, schedule: Q01DX009 (ip), vehicle: Klucel (hydroxypropylcellulose) (HPC) 93 % of control

CCOC(=O)c1[nH]nc(CC)c1O
inactive: dose: 50.0 mg/kg/injection, schedule: Q04DX003 (ip), vehicle: gum acacia 110 % of control | [5] 96 % of control | dose: 100.0 mg/kg/injection, schedule: Q04DX003 (ip), vehicle: gum acacia 98 % of control | dose: 200.0 mg/kg/injection, schedule: Q01DX009 (ip), vehicle: gum acacia 92 % of control | dose: 200.0 mg/kg/injection, schedule: Q04DX003 (ip), vehicle: gum acacia 103 % of control | dose: 400.0 mg/kg/injection, schedule: Q01DX009 (ip), vehicle: gum acacia 105 % of control | dose: 400.0 mg/kg/injection, schedule: Q04DX003 (ip), vehicle: gum acacia 108 % of control

Nc1cccc(NC=O)c1
inactive: dose: 25.0 mg/kg/injection, schedule: Q01DX009 (ip), vehicle: saline with Tween-80 102 % of control | [1] 104 % of control

COc1cc2c(cc1O)C(=O)CCC=C2
inactive: dose: 50.0 mg/kg/injection, schedule: Q01DX009 (ip), vehicle: other 102 % of control | dose: 100.0 mg/kg/injection, schedule: Q01DX009 (ip), vehicle: other 98 % of control | dose: 200.0 mg/kg/injection, schedule: Q01DX009 (ip), vehicle: other 94 % of control

Cc1cccc(SC(=O)Nc2cccc(Cl)c2C)c1
inactive: dose: 25.0 mg/kg/injection, schedule: Q01DX009 (ip), vehicle: gum acacia 100 % of control | dose: 50.0 mg/kg/injection, schedule: Q01DX009 (ip), vehicle: gum acacia 99 % of control | [5] 97 % of control and 89 % of control

Br[CH2][Sn]([Br])([Br])[CH2]Br
inactive: dose: 6.25 mg/kg/injection, schedule: Q04DX002 (ip), vehicle: saline with Tween-80 101 % of control | dose: 12.5 mg/kg/injection, schedule: Q04DX002 (ip), vehicle: saline with Tween-80 101 % of control | dose: 25.0 mg/kg/injection, schedule: Q04DX002 (ip), vehicle: saline with Tween-80 116 % of control

OCc1ncn[nH]1
inactive: [2] 102 % of control | [3] 95 % of control | [4] 107 % of control

CN1C(=O)NC(C)(C)C1=O
inactive: [2] 99 % of control | [3] 97 % of control | [4] 94 % of control
